Data from patent US20240109865A1, “INDAZOLE COMPOUNDS AS KINASE INHIBITORS” (TYRA BIOSCIENCES, INC., priority 2020, published 2024).

Legend:
[1] = biological target: FGFR3-BAIAP2L1 Ba/F3 cells (Homo sapiens, UniProt P22607); assay: Ba/F3 cell viability assay (CellTiter-Glo 2.0), FGFR3-BAIAP2L1 Ba/F3; assay type: cell-based; settings: for Ba/F3 FGFR1/FGFR3 Selectivity: FGFR3 > FGFR1 selectivity ratio in Ba/F3 FGFR fusion cell based assays; for IC50: read-out: Ba/F3 Cells FGFR3 (IC50 nM), FGFR3-BAIAP2L1 Ba/F3 cells, 48 hours, Cell Titer Glo 2.0
How it was run: (§1)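 IL3-independent Ba/F3 lines driven by FGFR1-BCR or FGFR3-BAIAP2L1 fusions, in RPMI1640/10% FBS. 9-dose 10-fold series from 30 μM, triplicate, 48 h at 37 °C; viability by CellTiter-Glo 2.0 ATP luminescence relative to DMSO control, IC50 from 4-parameter sigmoidal fit.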

[2] = tested on: KG-1 cells (FGFR1-fusion); assay: KG-1 cancer cell line cell viability assay (CellTiter-Glo 2.0); assay type: cell-based; settings: Homo sapiens, 72 hours, Cell Titer Glo 2.0
Excerpt: (§2) Experimental Purpose: To detect the change of intracellular ATP by Cell Titer-Glo® and to evaluate the inhibitory effect of the compounds on cancer cell lines by determining the in vitro IC50 value of the compounds.
(§3) Cell Titer-Glo® 2.0 Luminescent cell viability assay reagent was purchased from Promega (Madison, WI). RT112/84 and KG-1 cell lines were purchased from American Type Culture Collection (Manassas, VA). UM-UC-14 cell line was purchased from Sigma (St. Louis, MO). RT112/84, UM-UC-14, and KG-1 cells were cultured in RPMI1640 media supplemented with 10% fetal bovine serum. Cultures were maintained at 37° C. in a humidified atmosphere of 5% C02 and 95% air.
(§4) Cell Viability Assay Procedure: Cells were plated in 96-well clear bottom/white plates (Corning #3903) at 10,000 cells/well in 100 μl of media, incubated overnight. The next day, test compound DMSO stock solutions were made at 10 mM and 2 μM final concentration. Compounds were then added to cells in a 9-dose, 10-fold dilution series starting at 30 μM with an HP 300e Digital Dispenser (each dose was applied in triplicate). DMSO was backfilled to each well up to 301 nL total volume of test compound+DMSO, and a total of 301 nL DMSO was added to a control/no test compound well in triplicate. The cells in cell culture plates were incubated with the compounds at 37° C. and 5% C02 for 72 hours. Then 50 μl of Cell Titer Glo 2.0 reagent was added to each well of the cell culture plates. The contents were covered from light and mixed on an orbital shaker at room temperature for 10 min. Luminescence was recorded by a Synergy H1 Microplate Reader (Biotek, Winooski, VT). Cells were assessed as a percentage of DMSO only treated control cells. Curves were plotted and IC50 values were calculated using the GraphPad Prism 8 program based on a sigmoidal dose-response equation (4 parameter).

FGFR4 = FGFR4 (Homo sapiens (Human), UniProt P22455); assay: Kinase assay, binding constants (Kd), kinase-tagged T7 phage, qPCR
How it was run: (§5)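 Competition binding: T7 phage-tagged kinase + biotin-ligand beads + compound (11 pts, 3-fold, 0.9% DMSO). Elution 30 min RT with free ligand; qPCR quantitation. Kd via Hill fit, slope −1.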

FGFR3 (V555M) = FGFR3 (V555M) (Homo sapiens (Human), UniProt P22607, V555M); assay: as above; settings: V555M mutant
How it was run: as §5

FGFR1 = FGFR1 (Homo sapiens (Human), UniProt P11362); assay: as above
How it was run: as §5

FGFR2 = FGFR2 (Homo sapiens (Human), UniProt P21802); assay: as above
How it was run: as §5

FGFR3 = FGFR3 (Homo sapiens (Human), UniProt P22607); assay: as above
How it was run: as §5

[3] = tested on: RT112/84 cells (FGFR3-fusion); assay: RT112/84 cancer cell line cell viability assay (CellTiter-Glo 2.0); assay type: cell-based; settings: Homo sapiens, 72 hours, Cell Titer Glo 2.0
Excerpt: as §2, §3, §4

FGFR1-BCR Ba/F3 cells = FGFR1-BCR Ba/F3 cells (Homo sapiens, UniProt P11362); assay: Ba/F3 cell viability assay (CellTiter-Glo 2.0), FGFR1-BCR Ba/F3; assay type: cell-based; settings: read-out: Ba/F3 Cells FGFR1 (IC50 nM), 48 hours, Cell Titer Glo 2.0
How it was run: as §1

[4] = tested on: UM-UC-14 cells (FGFR3(S249C)); assay: UM-UC-14 cancer cell line cell viability assay (CellTiter-Glo 2.0); assay type: cell-based; settings: UMUC14, 72 hours, Cell Titer Glo 2.0
Excerpt: as §2, §3, §4

FGFR3 (V555M), sequence (P22607 23-806 V555M): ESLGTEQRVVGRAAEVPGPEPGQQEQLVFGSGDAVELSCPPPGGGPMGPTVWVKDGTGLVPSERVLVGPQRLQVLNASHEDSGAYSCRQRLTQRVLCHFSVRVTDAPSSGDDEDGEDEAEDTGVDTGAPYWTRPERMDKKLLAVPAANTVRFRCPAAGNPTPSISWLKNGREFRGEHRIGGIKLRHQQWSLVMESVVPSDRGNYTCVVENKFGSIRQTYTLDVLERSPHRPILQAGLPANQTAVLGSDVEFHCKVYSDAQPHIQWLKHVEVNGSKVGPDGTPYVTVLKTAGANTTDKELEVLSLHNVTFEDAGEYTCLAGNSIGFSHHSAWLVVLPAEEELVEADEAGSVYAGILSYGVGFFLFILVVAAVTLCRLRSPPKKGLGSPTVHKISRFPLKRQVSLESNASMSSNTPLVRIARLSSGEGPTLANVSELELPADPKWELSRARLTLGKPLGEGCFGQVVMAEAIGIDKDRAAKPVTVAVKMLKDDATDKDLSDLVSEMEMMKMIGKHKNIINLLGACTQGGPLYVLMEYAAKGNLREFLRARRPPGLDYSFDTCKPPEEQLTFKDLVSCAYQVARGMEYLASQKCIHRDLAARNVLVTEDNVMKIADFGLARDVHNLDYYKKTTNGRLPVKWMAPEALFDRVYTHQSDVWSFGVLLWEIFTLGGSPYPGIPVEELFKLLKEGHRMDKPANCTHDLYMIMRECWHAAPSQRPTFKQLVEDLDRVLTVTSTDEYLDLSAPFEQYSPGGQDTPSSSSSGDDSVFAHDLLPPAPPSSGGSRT
FGFR3-BAIAP2L1 Ba/F3 cells, sequence (P22607 23-806 limits assumed, change not shown): as the sequence (P22607 23-806 V555M) above, with M533V counted along it
FGFR3, sequence (P22607 23-806): as the sequence (P22607 23-806 V555M) above, with M533V counted along it
FGFR4, sequence (P22455 22-802): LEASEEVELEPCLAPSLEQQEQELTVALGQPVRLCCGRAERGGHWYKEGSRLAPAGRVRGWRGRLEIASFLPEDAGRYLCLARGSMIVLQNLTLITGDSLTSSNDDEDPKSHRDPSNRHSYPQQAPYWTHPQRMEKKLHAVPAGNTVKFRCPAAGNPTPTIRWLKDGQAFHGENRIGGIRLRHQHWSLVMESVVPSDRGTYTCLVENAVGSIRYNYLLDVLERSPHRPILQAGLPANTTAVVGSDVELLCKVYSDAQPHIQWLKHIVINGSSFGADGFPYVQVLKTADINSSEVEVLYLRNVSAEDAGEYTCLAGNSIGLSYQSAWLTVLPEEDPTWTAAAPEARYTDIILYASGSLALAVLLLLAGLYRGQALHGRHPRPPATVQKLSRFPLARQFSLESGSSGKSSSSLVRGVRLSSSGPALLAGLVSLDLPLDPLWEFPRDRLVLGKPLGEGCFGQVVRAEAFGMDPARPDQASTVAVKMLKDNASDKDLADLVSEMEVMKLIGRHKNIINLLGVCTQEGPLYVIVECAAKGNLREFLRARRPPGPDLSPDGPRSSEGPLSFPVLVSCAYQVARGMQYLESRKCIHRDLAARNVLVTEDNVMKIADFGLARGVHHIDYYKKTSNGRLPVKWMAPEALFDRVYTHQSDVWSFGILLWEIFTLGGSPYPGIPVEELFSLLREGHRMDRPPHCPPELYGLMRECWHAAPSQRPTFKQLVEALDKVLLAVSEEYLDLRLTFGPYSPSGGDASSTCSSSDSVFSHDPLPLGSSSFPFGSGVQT
FGFR1, sequence (P11362 22-822): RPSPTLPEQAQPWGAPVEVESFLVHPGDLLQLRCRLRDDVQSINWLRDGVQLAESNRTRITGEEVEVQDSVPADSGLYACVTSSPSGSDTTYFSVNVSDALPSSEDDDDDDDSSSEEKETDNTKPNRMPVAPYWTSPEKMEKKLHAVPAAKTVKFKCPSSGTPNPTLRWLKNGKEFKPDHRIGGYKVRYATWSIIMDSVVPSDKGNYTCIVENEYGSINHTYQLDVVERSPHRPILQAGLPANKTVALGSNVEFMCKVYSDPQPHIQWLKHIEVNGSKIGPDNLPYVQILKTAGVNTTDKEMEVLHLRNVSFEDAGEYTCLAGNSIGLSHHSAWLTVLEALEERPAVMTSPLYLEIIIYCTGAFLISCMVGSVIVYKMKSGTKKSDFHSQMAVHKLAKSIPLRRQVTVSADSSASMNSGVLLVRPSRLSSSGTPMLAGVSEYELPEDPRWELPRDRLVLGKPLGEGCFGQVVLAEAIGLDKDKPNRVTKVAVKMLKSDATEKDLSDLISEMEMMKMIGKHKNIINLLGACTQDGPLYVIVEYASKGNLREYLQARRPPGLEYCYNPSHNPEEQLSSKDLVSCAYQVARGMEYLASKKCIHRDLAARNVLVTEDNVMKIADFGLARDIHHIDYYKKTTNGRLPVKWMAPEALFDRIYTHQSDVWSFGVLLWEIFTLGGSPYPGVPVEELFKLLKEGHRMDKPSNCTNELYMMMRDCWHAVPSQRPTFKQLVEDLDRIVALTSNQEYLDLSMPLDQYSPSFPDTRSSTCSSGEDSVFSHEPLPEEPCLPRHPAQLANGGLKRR
FGFR1-BCR Ba/F3 cells, sequence (P11362 22-822 limits assumed, change not shown): as the sequence (P11362 22-822) above
FGFR2, sequence (P21802 22-821): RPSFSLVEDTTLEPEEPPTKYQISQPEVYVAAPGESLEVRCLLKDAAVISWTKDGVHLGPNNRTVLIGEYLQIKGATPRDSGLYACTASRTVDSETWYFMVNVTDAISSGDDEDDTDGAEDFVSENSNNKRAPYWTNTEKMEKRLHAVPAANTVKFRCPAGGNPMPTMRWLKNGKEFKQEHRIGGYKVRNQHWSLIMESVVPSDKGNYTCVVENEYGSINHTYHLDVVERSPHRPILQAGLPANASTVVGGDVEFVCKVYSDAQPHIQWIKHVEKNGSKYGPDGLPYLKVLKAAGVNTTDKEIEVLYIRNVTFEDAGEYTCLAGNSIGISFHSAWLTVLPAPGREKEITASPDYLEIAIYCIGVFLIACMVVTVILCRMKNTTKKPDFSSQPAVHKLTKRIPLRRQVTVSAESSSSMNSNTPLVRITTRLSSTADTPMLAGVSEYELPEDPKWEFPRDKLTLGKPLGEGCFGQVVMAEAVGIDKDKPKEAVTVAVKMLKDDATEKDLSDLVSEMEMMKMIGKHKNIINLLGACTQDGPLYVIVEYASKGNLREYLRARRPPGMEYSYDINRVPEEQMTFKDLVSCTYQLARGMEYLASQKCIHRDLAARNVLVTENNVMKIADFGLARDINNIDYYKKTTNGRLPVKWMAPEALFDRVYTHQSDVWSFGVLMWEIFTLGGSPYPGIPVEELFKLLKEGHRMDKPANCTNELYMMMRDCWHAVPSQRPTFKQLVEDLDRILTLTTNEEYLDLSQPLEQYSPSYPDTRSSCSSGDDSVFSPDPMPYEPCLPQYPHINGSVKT

SMILES	Ba/F3 FGFR1/FGFR3 Selectivity [1]	IC50 [1] [nM]	IC50 [2] [nM]	Kd (FGFR4) [nM]	Kd (FGFR3 (V555M)) [nM]	Kd (FGFR1) [nM]	Kd (FGFR2) [nM]	Kd (FGFR3) [nM]	IC50 [3] [nM]	IC50 (FGFR1-BCR Ba/F3 cells) [nM]	IC50 [4] [nM]
CCOC(=O)N1CC2(C1)CN(c1ccc(-c3n[nH]c4ccc(O[C@H](C)c5c(Cl)cncc5Cl)cc34)cn1)C2 [Example 121, ethyl 6-[5-[5-[(1R)-1-(3,5-dichloro-4-pyridyl)ethoxy]-1H-indazol-3-yl]-2-pyridyl]-2,6-diazaspiro[3.3]heptane-2-carboxylate]	14	1 to 20	100 to 300	1 to 20	1 to 20	20 to 100	20 to 100	1 to 20	1 to 20	100 to 300	
C[C@@H](Oc1ccc2[nH]nc(-c3cnc(N4CC5(CCS(=O)(=O)C5)C4)nc3)c2c1)c1c(Cl)cncc1Cl [Example 122, 2-[5-[5-[(1R)-1-(3,5-dichloro-4-pyridyl)ethoxy]-1H-indazol-3-yl]pyrimidin-2-yl]-6λ^6-thia-2-azaspiro[3.4]octane 6,6-dioxide]	7	1 to 20	100 to 300	1 to 20	1 to 20	1 to 20	20 to 100	1 to 20	1 to 20	20 to 100	
COC(=O)N1CC2(C1)CN(c1ccc(-c3n[nH]c4ccc(O[C@H](C)c5c(Cl)cncc5Cl)cc34)cn1)C2 [Example 123, methyl 6-[5-[5-[(1R)-1-(3,5-dichloro-4-pyridyl)ethoxy]-1H-indazol-3-yl]-2-pyridyl]-2,6-diazaspiro[3.3]heptane-2-carboxylate]	15	1 to 20	100 to 300	1 to 20	1 to 20	1 to 20	1 to 20	1 to 20	1 to 20	20 to 100	
CCS(=O)(=O)N1CC2(CN(c3ccc(-c4n[nH]c5ccc(O[C@H](C)c6c(Cl)cncc6Cl)cc45)cn3)C2)C1 [Example 124, 5-[(1R)-1-(3,5-dichloro-4-pyridyl)ethoxy]-3-[6-(2-ethylsulfonyl-2,6-diazaspiro[3.3]heptan-6-yl)-3-pyridyl]-1H-indazole]	17	1 to 20	100 to 300	1 to 20	1 to 20	20 to 100	20 to 100	1 to 20	1 to 20	100 to 300	
COC(=O)N1CCC2(CC1)CN(c1ccc(-c3n[nH]c4ccc(O[C@H](C)c5c(Cl)cncc5Cl)cc34)cn1)C2 [Example 125, methyl 2-[5-[5-[(1R)-1-(3,5-dichloro-4-pyridyl)ethoxy]-1H-indazol-3-yl]-2-pyridyl]-2,7-diazaspiro[3.5]nonane-7-carboxylate]	16	1 to 20	100 to 300	1 to 20	1 to 20	20 to 100	20 to 100	1 to 20	1 to 20	100 to 300	
C[C@@H](Oc1ccc2[nH]nc(-c3cnc(N4CCC5(CCS(=O)(=O)C5)C4)nc3)c2c1)c1c(Cl)cncc1Cl (stereo partly drawn) [Example 127, 7-[5-[5-[(1R)-1-(3,5-dichloro-4-pyridyl)ethoxy]-1H-indazol-3-yl]pyrimidin-2-yl]-2λ^6-thia-7-azaspiro[4.4]nonane 2,2-dioxide]	11	1 to 20	100 to 300	1 to 20	1 to 20	20 to 100	20 to 100	1 to 20	20 to 100	100 to 300	
C[C@@H](Oc1ccc2[nH]nc(-c3cnc(N4CC5(CCN(S(C)(=O)=O)C5)C4)nc3)c2c1)c1c(Cl)cncc1Cl [Example 157, 5-[(1R)-1-(3,5-dichloro-4-pyridyl)ethoxy]-3-[2-(7-methylsulfonyl-2,7-diazaspiro[3.4]octan-2-yl)pyrimidin-5-yl]-1H-indazole]	7	1 to 20		1 to 20	1 to 20	20 to 100	20 to 100	1 to 20	20 to 100	100 to 300	100 to 300
